Several values for one entry are separate records, joined by “and”; a condition that tells them apart may be missing. Equal values may be shown once.
Assays:
in vitro = assay: in vitro; parameters: Papp at 16 h: dose or concentration left out as unconfirmed; conditions: for Papp at 16 h: PAMPA
Method: Commercial drugs were purchased from Sigma (St. Louis, MO) and Alfa Aesar (Haverhill, MA). The porcine brain lipid (PBL) was obtained from Avanti Polar Lipids (Alabaster, AL). The donor microplate (PVDF membrane, pore size […]) and the acceptor microplate were both from Millipore (Darmstadt, Germany). The 96-well UV plate (COSTAR^@) was from Corning Incorporated (Harrodsburg, KY). The acceptor 96-well microplate was filled with 300 μL of PBS/EtOH (7:3), and the filter membrane was impregnated with 4 μL of PBL in dodecane (20 mg/mL). […] The […] was carefully placed on the donor plate to form a sandwich, which was left undisturbed for 16 h at 25 °C. After incubation, the donor plate was carefully removed and the concentration of compound in the acceptor wells was determined using an UV plate reader (Flexstation^@ 3). Every sample was analyzed at five wavelengths, in four wells, in at least three independent runs, and the results are given as the mean ± SD. In each experiment, nine quality control standards of known BBB permeability were included to validate the analysis set.

[1] = biological target: T1, BuChE (from equine serum) (Equus caballus, UniProt P81908); assay: biochemical; format: biochemical; conditions: IC50 eqBuChE, means ± SD of three experiments
T1 construct: butyrylcholinesterase (BuChE, E.C. 3.1.1.8) from equine serum and human serum; purchased Sigma-Aldrich (St. Louis, MO); host or cells: equine serum

Aβ (1–42) [2] = biological target: T2, Aβ (1–42) (Homo sapiens, UniProt P05067); assay: Inhibition of Cu^2+-induced Aβ (1–42) aggregation (ThT assay); format: biochemical; conditions: read-out: Inhibition of Cu^2+-induced Aβ aggregation
Method: The mixture of the peptide (10 μL, 25 μM, final concentration) with or without copper (10 μL, 25 μM, final concentration) and the test compound (10 μL, 50 μM, final concentration) were incubated at 37 °C for 24 h. The 20 μL of the sample was diluted to a final volume of 200 μL with […] glycine–NaOH buffer (pH 8.0) containing ThT (5 μM). The detection method was the same as that of self-induced Aβ aggregation experiment.

Aβ (1–42) [3] = biological target: T2, Aβ (1–42); assay: Inhibition of Aβ (1–42) self-induced aggregation (Thioflavin T assay); conditions: read-out: Aβ (1–42) aggregation inhibition (%)
AChE (from electric eel) = biological target: T3, AChE (from electric eel) (Electrophorus electricus, UniProt O42275); assay: biochemical; conditions: means ± SD of three experiments; read-out: IC50 eeAChE
T3 construct: Acetylcholinesterase (E.C. 3.1.1.7) from electric eel and human erythrocytes; purchased Sigma-Aldrich (St. Louis, MO); host or cells: electric eel (natural source)

EeAChE = EeAChE (Electrophorus electricus, UniProt O42275); assay: Kinetic analysis of AChE inhibition (Lineweaver–Burk plots); conditions: 5l at 30.0, 15.0 and 7.5 nM
PC12 cells [4] = assay: Cytotoxicity in PC12 cells (MTT assay); format: cell-based; conditions: 3–50 μM, 24 h
Method: The toxicity effect of the tested compounds on the rat pheochromocytoma (PC12) cells was examined according to previously reported methods. PC 12 cells was obtained from the Cell Bank of the Chinese Academy of Sciences (Shanghai, China) and routinely grown at 37 °C in a humidified incubator with 5% CO2 in Dulbecco’s modified Eagle’s medium (DMEM) supplemented with 10% bovine calf serum, 100 units per mL penicillin, and 100 units per mL of streptomycin. Cells were sub-cultured in 96-well plates at a seeding density of 5000 cells per well and allowed to adhere and grow. When cells reached the required confluence, they were placed into serum-free medium and treated with compound 5l. Twenty-four hours later the survival of cells was determined by MTT assay. Briefly, after incubation with 20 μL of MTT at 37 °C for 4 h, living cells containing MTT formazan crystals were solubilized in 200 μL DMSO. The absorbance of each well was measured using a microculture plate reader with a test wavelength of 570 nm and a reference wavelength of 630 nm. Results are expressed as the mean ± SD of three independent experiments.

PC12 cells [5] = assay: Neuroprotection against Aβ (1–42)-induced toxicity in PC12 cells (MTT assay); format: cell-based; conditions: Rattus norvegicus, PC-12, Aβ (1–42) 25 μM, 24 h, Aβ alone 44.2%, read-out: Cell viability (% of control) with Aβ (1–42)
Method: PC 12 cells were grown in RPMI-1640 medium containing 10% (v/v) foetal bovine serum, 100 U penicillin/mL and […] streptomycin/mL under 5% CO2 at 37 °C. The culture media were changed every other day. After pretreatment with different concentrations of test compound (0, 6, 12.5, 25, 50 μM) for 2 h, PC 12 cells were incubated with 25 μM of Aβ (1–42) for 24 h. The cell viability was evaluated using MTT assay. Briefly, the cells were treated with 10 μL MTT (5 mg/mL in PBS) for 4 h at 37 °C. Then, 200 μL of DMSO was added to dissolve the dark blue formazan crystals formed in intact cells, and the absorbance at 570 nm was detected by a microplate reader. PC12 cells were cultured without test compound or Aβ (1–42) as control group and the results were expressed by percentage of control.

human AChE = biological target: T4, human AChE (Homo sapiens, UniProt P22303); assay: biochemical; conditions: means ± SD of three experiments; read-out: IC50 hAChE
T4 construct: Acetylcholinesterase (E.C. 3.1.1.7) from electric eel and human erythrocytes; purchased Sigma-Aldrich (St. Louis, MO); host or cells: human erythrocytes

brain AChE = brain AChE (Mus musculus, UniProt P21836); conditions: mice, 10 μmol/kg i.p., sacrificed 10 min after administration
[6] = PAMPA-BBB literature value; cited from earlier work

T1 sequence (P81908 whole entry): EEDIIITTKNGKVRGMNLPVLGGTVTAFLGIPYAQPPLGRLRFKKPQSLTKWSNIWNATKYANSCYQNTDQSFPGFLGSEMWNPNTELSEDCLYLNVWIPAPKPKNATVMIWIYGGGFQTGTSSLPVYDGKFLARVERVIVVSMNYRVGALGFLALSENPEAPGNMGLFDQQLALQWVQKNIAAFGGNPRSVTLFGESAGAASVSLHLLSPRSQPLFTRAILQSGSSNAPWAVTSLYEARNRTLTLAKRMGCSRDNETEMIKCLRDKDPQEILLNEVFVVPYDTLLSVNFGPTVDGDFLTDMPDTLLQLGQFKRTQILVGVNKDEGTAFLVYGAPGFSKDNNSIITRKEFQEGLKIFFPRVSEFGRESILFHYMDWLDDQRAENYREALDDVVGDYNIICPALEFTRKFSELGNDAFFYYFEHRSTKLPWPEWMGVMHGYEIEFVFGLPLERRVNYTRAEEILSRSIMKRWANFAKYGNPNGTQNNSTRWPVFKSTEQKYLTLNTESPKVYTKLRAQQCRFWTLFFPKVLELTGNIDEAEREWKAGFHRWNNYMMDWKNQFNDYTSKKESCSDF
T2 sequence (P05067 672-713): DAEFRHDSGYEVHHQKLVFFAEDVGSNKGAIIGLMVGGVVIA
Chain of brain AChE (P21836 32-614): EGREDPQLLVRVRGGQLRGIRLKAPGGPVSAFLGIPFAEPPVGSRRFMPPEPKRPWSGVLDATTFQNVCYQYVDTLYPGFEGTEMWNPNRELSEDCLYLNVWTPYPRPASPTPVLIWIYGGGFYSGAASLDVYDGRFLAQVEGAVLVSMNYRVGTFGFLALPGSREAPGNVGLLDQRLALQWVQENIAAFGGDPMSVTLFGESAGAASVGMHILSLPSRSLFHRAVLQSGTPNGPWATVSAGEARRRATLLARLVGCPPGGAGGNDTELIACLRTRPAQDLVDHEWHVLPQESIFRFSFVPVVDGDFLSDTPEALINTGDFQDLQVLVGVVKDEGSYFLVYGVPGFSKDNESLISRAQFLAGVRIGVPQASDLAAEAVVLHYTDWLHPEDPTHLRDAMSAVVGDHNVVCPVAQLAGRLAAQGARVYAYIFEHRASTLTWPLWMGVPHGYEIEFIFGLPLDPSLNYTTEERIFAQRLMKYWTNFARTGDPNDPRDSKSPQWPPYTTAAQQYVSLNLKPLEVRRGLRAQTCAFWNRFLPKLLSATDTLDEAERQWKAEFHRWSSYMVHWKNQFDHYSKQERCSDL
Chain of EeAChE (O42275 24-633): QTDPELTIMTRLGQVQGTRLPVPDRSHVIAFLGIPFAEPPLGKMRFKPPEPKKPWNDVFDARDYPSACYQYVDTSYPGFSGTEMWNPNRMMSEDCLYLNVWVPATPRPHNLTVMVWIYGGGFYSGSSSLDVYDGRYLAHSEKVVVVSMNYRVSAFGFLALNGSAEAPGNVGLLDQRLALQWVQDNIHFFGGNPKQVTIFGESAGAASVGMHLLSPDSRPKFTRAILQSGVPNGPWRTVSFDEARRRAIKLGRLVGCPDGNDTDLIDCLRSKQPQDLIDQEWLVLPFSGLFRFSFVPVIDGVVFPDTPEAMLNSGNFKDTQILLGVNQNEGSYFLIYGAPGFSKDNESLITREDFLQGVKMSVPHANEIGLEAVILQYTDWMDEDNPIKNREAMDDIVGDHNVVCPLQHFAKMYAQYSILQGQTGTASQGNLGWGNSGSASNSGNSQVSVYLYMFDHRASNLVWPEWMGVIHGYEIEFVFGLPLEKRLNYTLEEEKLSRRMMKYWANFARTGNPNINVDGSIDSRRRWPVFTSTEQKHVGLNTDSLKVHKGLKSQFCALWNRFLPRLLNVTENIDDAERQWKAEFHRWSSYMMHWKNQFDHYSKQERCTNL
T3 sequence (O42275 24-633): as above
T4 sequence (P22303 other isoform, or with tags, fused parts or gaps): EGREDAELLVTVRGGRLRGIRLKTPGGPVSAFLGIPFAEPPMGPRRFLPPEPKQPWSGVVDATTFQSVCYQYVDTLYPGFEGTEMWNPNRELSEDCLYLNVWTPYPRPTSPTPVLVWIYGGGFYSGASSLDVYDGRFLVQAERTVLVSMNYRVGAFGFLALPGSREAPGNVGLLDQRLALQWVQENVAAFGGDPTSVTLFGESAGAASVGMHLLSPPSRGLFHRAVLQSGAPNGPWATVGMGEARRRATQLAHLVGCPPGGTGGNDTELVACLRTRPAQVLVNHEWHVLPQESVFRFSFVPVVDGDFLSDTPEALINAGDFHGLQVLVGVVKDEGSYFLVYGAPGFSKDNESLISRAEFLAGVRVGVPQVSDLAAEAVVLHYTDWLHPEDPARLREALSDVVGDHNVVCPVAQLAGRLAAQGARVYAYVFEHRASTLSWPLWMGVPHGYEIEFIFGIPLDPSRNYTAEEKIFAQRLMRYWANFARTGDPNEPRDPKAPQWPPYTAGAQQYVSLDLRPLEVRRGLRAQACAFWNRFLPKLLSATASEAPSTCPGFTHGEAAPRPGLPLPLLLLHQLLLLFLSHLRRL

Row | Compound | Papp at 16 h (in vitro) [×10⁻⁶ cm/s] | BBB permeation prediction class (in vitro; PAMPA-BBB) | IC50 [1] | inhibition at 50 µM (Aβ (1–42) [2]) [%] | inhibition at 20 µM (Aβ (1–42) [3]) [%] | IC50 (AChE (from electric eel)) [nM] | ABTS assay (trolox equiv) | Type of AChE inhibition (EeAChE) | Effect on cell viability (toxicity) (PC12 cells [4]) | viability at 6 µM (PC12 cells [5]; 6 μM compound) [%] | viability at 12.5 µM (PC12 cells [5]; 12.5 μM compound) [%] | viability at 25 µM (PC12 cells [5]; 25 μM compound) [%] | viability at 50 µM (PC12 cells [5]; 50 μM compound) [%] | IC50 (human AChE) [nM] | Inhibition (%) of brain AChE activity versus untreated controls (brain AChE) [%] | Permeability Pe, Bibl [6] [×10⁻⁶ cm/s]
1 | COc1ccc(/C=C/C(=O)Nc2cc[n+](Cc3ccc(F)cc3)cc2)cc1OC.[Br-] [Compound 5l, (E)-4-(3-(3,4-dimethoxyphenyl)acrylamido)-1-(4-fluorobenzyl) pyridin-1-ium bromide] | 2.89 ± 0.37 | CNS+ | 2500 nM and 2600 nM | 68.6 | 64.7 ± 1.6 | 12.1 ± 1.8 | N (N means <0.05) | mixed-type inhibitor | did not significantly affect cell viability | 47.6 ± 4.2 | 57.5 ± 1.4 | 63.2 ± 3.5 | 66.6 ± 2.5 | 8.6 ± 0.9 | 53.9 ± 2.9 | –
2 | NCCc1ccc(O)c(O)c1 [Dopamine, reference compound] | 0.17 | – | – | – | – | – | – | – | – | – | – | – | – | – | – | 0.2

From publication PMC6009898 (Journal of Enzyme Inhibition and Medicinal Chemistry, 2017)
